We go through twelve molecules from patent US4000147A, “Anhydro-2-mercapto-1,3,4-thiadiazolium hydroxides” (BASF Aktiengesellschaft, priority 1974, dated 1976).

Data set [1] has as its system clonic cramps caused by Pentetrazol. Briefly: anti-convulsive action against clonic spasms caused by Pentetrazol (60 mg/kg s.c.), inclined screen (Table 2). The conditions noted are these: Mus musculus, mice, oral, 30 minutes before s.c. 60 mg/kg Pentetrazol. In kind it is in vivo, female Swiss mice. On the procedure:
As a pharmacological test of the anti-convulsive action against clonic spasms caused by Pentetrazol, the test substances were administered orally to groups of from 8 to 10 female Swiss mice weighing from 20 to 25 g, 30 minutes before subcutaneous administration of 60 mg/kg of Pentetrazol.
In the untreated animals, this dose of Pentetrazol caused clonic cramps, as a result of which the mice slid off an inclined screen.
Anti-convulsive agents prevent the cramps and the sliding off the screen, the degree of prevention depending on the dose. The ED50 was taken to be the dose after administration of which 50% of the treated animals remained on the screen.
^1) Action against clonic cramps caused by Pentetrazol in mice. Oral
administration 30 minutes before subcutaneous administration of 60 mg/kg

Data set [2] in a line: acute toxicity, intraperitoneal (Table 2). The conditions noted are these: mouse, in vivo, ip, mice, approximate values. The text has this:
^2) Mice. Intraperitoneal administration. Approximate values

The subject of a further data set is maximum electric shock. Briefly: maximum tonic electro-induced cramp (Table 3). In kind it is in vivo, mice. As to conditions: for ED50: Mus musculus, read-out: Maximum electric shock, ED50.
A further data set in a line: in vivo. As to conditions: for LD50: mouse, in vivo. Here is the method:
The comparative experiments in Table 3 were carried out with anhydro-2-mercapto-4-methyl-5-(3'-chlorophenyl)-1,3,4-thiadiazolium hydroxide, referred to as substance A in the Table and in the subsequent text.

Data set [3] concerns minimum Pentetrazol-induced cramp. As to the kind of experiment: minimum clonic cramp after subcutaneous administration of 70 mg/kg of Pentetrazol (Table 3). In kind it is in vivo, mice. The conditions noted are these: for ED50: Mus musculus, 0.75 h, read-out: Minimum Pentetrazol-induced cramp, ED50.
The subject of data set [4] is maximum Pentetrazol-induced extension. Briefly: maximum tonic extension spasm after subcutaneous administration of 121 mg/kg of Pentetrazol (Table 3). In kind it is in vivo, mice. As to conditions: for ED50: Mus musculus, read-out: Maximum Pentetrazol-induced extension, ED50.
The mark [5] stands for this setting: mice, oral, tonic cramps induced by electric shock.
Where [6] appears, read: mice, oral, 70 mg/kg Pentetrazol s.c., observed 45 minutes after Pentetrazol.
Setting [7] is: mice, oral, 121 mg/kg Pentetrazol s.c.

Like-named read-outs stand apart in the source and are kept apart here. Where only a bound is given, the exact number is not on record here.

For the molecule `C[n+]1nc([S-])sc1-c1ccccc1F`, in data set [1], the median effective dose (ED50) – broadly, the midpoint of the dose-response relation – is 10 mg/kg. The LD50 – broadly, the dose expected to kill half of the subjects tested – in data set [2] is above 1000 mg/kg.
`C[n+]1nc([S-])sc1-c1cccc(F)c1`: the ED50 in data set [1] came to 2.2 mg/kg. Further, the LD50 in data set [2] is 1000 mg/kg.
With `C[n+]1nc([S-])sc1-c1ccc(F)cc1`, the ED50 in data set [1] was determined as 2.2 mg/kg. This molecule showed an LD50 in data set [2] above 1000 mg/kg.
The matching figures for `C[n+]1nc([S-])sc1-c1ccc(Br)cc1`: 46 mg/kg and above 1000 mg/kg.
With `CCC[n+]1nc([S-])sc1-c1ccc(Cl)cc1`, the ED50 in data set [1] was 32 mg/kg. In data set [2], this molecule returned an LD50 of 681 mg/kg.
Molecule `CCC[n+]1nc([S-])sc1-c1ccccc1` displayed an ED50 in data set [1] of 22 mg/kg. In data set [2], this molecule yielded an LD50 of 68.1 mg/kg.
The matching figures for `C[n+]1nc([S-])sc1-c1cccc(C(F)(F)F)c1`: 0.46 mg/kg and 681 mg/kg.
For `CCC1(c2ccccc2)C(=O)NC(=O)NC1=O` [Phenobarbital], the ED50 amounted to 11 mg/kg in the data set on maximum electric shock (po), 30 mg/kg in data set [3] (po) and 22 mg/kg in data set [4] (po). Further, in the data set on maximum electric shock (in words), the “activity in cramp induced by electric shock, relative to substance A” value is “about twice as active”. This molecule also displayed an LD50 in the data set “in vivo” of 320 mg/kg. Besides, the “activity in tonic cramp induced by Pentetrazol, relative to substance A” value in data set [4] (in words) is “about twice as active”.
With `O=C1NC(=O)C(c2ccccc2)(c2ccccc2)N1` [Phenytoin], the results for the median effective dose (ED50) (in the data set on maximum electric shock (setting [5]); in data set [4] (setting [7])) were 8 mg/kg and 22 mg/kg, respectively. Moreover, the “activity against clonic spasms induced by Pentetrazol” value in data set [3] (in words) is “inactive”. Further, the “Minimum Pentetrazol-induced cramp, ED50” value in data set [3] (setting [6]) is “inactive”.
Take `C[n+]1nc([S-])sc1-c1cccc(Cl)c1` [Substance A, anhydro-2-mercapto-4-methyl-5-(3'-chlorophenyl)-1,3,4-thiadiazolium hydroxide]: the median effective dose (ED50) in the data set on maximum electric shock (setting [5]) was 23 mg/kg; in data set [3] (setting [6]), 7 mg/kg; in data set [4] (setting [7]) it was 10 mg/kg. In addition, the “toxicity compared with Phenobarbital and Phenytoin” value in “in vivo” (in words) was “markedly less than that of Phenobarbital and Phenytoin”. In the data set “in vivo”, this molecule had an LD50 above 1000 mg/kg. In addition, the “activity in counteracting clonic spasms induced by Pentetrazol, compared with Phenobarbital and Phenytoin” value in data set [3] (in words) is “more active in counteracting clonic spasms induced by Pentetrazol than is Phenobarbital and above all than is Phenytoin”.
Take `CN1C(=O)OC(C)(C)C1=O` [Trimethadion]: the ED50 with maximum electric shock (setting [5]) was 450 mg/kg; in data set [3] (setting [6]), 240 mg/kg; in data set [4] (setting [7]), 260 mg/kg. In the data set “in vivo”, this molecule showed a median lethal dose (LD50) above 1000 mg/kg. Further, the “times less active than substance A, clonic cramp test” value in data set [3] (clonic cramp test) was “more than 20 times”. In addition, the “times less active than substance A, tonic cramp test” value in data set [4] (tonic cramp test) is on record as “more than 20 times”.
`C[n+]1nc([S-])sc1-c1cccc(Cl)c1` [drawing 15] had a 50% effective dose (ED50) in data set [1] of 3.2 mg/kg. Also, the LD50 in data set [2] is above 1000 mg/kg.
